Source: patent US9265808B2, “Compositions for alleviating inflammation and oxidative stress in a mammal” (priority 2004, dated 2016)
Like-named read-outs stand apart in the source and are kept apart here.

Key:
[1] = Blood pressure of human subjects; conditions: Subject #2, ATENOLOL 25 mg/day alone
Procedure: The approximate daily dosage of each of the components of the herb-containing composition was as follows: B. monnieri extract (200 mg), Milk Thistle extract 70-80% (300 mg), Ashwagandha powder (200 mg), Turmeric extract (95%) (100 mg), Gotu kola powder (200 mg), Aloe vera powder (200 mg), Green tea (98% Polyphenols 45% EGCG) (100 mg), and Ginko biloba leaf extract (200 mg).
The approximate daily dosage of each of the components of the herb-containing composition was as follows: B. monnieri extract (134 mg), Milk Thistle extract 70-80% (200 mg), Ashwagandha powder (134 mg), Turmeric extract (95%) (67 mg), Gotu kola powder (134 mg), Aloe vera powder (134 mg), Green tea (98% Polyphenols, 45% EGCG) (67 mg), and Ginko biloba leaf extract (134 mg).

[2] = system: HO-1; test: Protandim®-induced HO-1 protein in presence of signaling pathway inhibitors, SK-N-MC cells; type: cell-based, human; conditions: for decrease of Protandim®-mediated increase in HO-1 expression in presence of inhibitor: 20 μM SB203580 or 1 μM rottlerin 30 min
Procedure: To identify the signaling pathway(s) involved in HO-1 promoter induction by Protandim®, different pharmacological inhibitors that specifically block each of the following pathways were used: 5-(2-benzothiazolyl)-3-ethyl-2-[2-(methylphenylamino) ethenyl]-1-phenyl-1H-benzimidazolium iodide (Akt inhibitor IV) for Akt, LY294002 for PI3-kinase, SP600125 for JNK, U0126 for MEK/ERK, SB203580 for p38MAPK, and rottlerin for PKCδ. SK-N-MC cells were preincubated in the presence of 250 nM Akt inhibitor IV, 30 μM LY294002, 1 μM rottlerin, 10 μM U0126, 20 μM SB203580, or 20 μM SP600125 for 30 min followed by exposure to 20 μg/ml Protandim® for 24 h. Cell lysates were electrophoresed and immunoblotted for HO-1. The blots were then reprobed with the antibody for β-actin. […] The intensities of the bands were quantified by densitometry using Fluor-S MultiImager and Quantity One software from Bio-Rad. HO-1 levels were corrected for β-actin expression.

[3] = system: HO-1 promoter; test: HO-1 promoter luciferase reporter assay in MIN6 cells; type: cell-based, mouse; conditions: concentration present in the maximum dose of Protandim® (40 μg/ml)
Procedure: (§1) The induction of HO-1 by Protandim® was tested by transient transfection of its promoter linked to the luciferase reporter gene in MIN6 cells, a mouse insulinoma cell line, and in SK-N-MC cells, a human neuroblastoma cell line, as reported in Velmurugan, K. et al., “Synergistic induction of heme oxygenase-1 by the components of the antioxidant supplement Protandim,” Free Radical Biology & Medicine, 46: 430-440 (2009), the entire disclosure of which is incorporated herein by reference.
(§2) The alcohol extract of Protandim® was prepared by shaking 675 mg of Protandim with 16.875 ml of 95% ethanol overnight at 4° C. and centrifuging at 5000 rpm (4° C.) for 5 min, and the extract (40 mg/ml) was stored at −80° C. For studies on synergy, the individual components present in 675 mg of Protandim® were extracted in the same volume of alcohol by a similar procedure. Parallel preparations of Protandim® extracts were also prepared with one of the components omitted. […] Controls were treated with the same volume of alcohol used in the treated groups. […]
(§3) After freezing and thawing, the lysates were centrifuged (10,600 g; 20 min) to collect the supernatant. Firefly luciferase and Renilla luciferase activities from transfected cells were measured using the Dual-Glo Luciferase Assay System (Promega). […]

[4] = system: HO-1 promoter; test: HO-1 promoter luciferase reporter assay in SK-N-MC cells; type: cell-based, human; conditions: concentration present in the maximum dose of Protandim® (20 μg/ml)
Procedure: as §1, §2, §3

[5] = system: HO-1; test: HO-1 protein by Western blot in MIN6 cells; type: cell-based, mouse; conditions: ethanolic extracts at maximum doses of Table 10 (Protandim® 40 μg/ml)
Source text: (§4) After treatment with Protandim® extracts, MIN6 and SK-N-MC cells were washed with ice-cold PBS. Cells were lysed with mammalian protein extraction reagent (Pierce, Rockford, Ill., USA) containing phosphatase inhibitors and protease inhibitor cocktail. […] Diluted samples containing equal amounts of protein were mixed with 2× Laemmli sample buffer and subjected to electrophoresis on 12% SDS-polyacrylamide gels. After transfer to polyvinylidene difluoride membranes, the membranes were blocked with TBST [20 mM Tris-HCl (pH 7.9), 8.5% NaCl, and 0.1% Tween 20] containing 5% nonfat dry milk at room temperature for 1 h and exposed to primary antibodies (1:1000) in TBST containing 5.0% BSA at 4° C. overnight. After being washed in blocking solution, the membranes were exposed to secondary antibodies conjugated to alkaline phosphatase and developed with CDP-Star reagent (New England Biolabs, Beverly, Mass., USA). The intensity of the protein bands was visualized using Fluor-S Multi-Imager and Quantity One software from Bio-Rad. […]
(§5) Cell lysates were processed for Western blot analysis of HO-1, and the blots reprobed for β-actin. The intensities of bands were quantitated by scanning in a MultiImager using Quantity One software (Bio-Rad), and HO-1 expression was corrected for β-actin levels.

[6] = system: HO-1; test: HO-1 protein by Western blot in SK-N-MC cells; type: cell-based, human; conditions: ethanolic extracts at maximum doses of Table 10 (Protandim® 20 μg/ml)
Source text: as §4, §5

[7] = pH of 1.0; cited from earlier work
[8] = system: Nrf2; test: AREc32 bioassay for Nrf2 activation
Source text: The assay for Nrf2 activation is based on the AREc32 cell line, developed by Dr. C. R. Wolf and colleagues of the University of Dundee, Scotland, as described in Wang, X. J. et al., “Generation of a stable antioxidant response element-driven reporter gene cell line and its use to show redoxdependent activation of Nrf2 by cancer chemotherapeutic agents,” Cancer Res. 66, 10983-10994 (2006); Hybertson, B. M. et al., “Oxidative stress in health and disease: the therapeutic potential of Nrf2 activation,” Molecular Aspects of Medicine, 32: 234-246 (2011), the entire disclosure of each of which is incorporated herein by reference. The AREc32 cell line is a stable transfectant derived from the MCF7 human breast cancer cell line. It contains a promoter with eight copies of the rat glutathione-S-transferase-A2 Antioxidant Response Element (ARE) and the SV40 promoter sequence upstream of a firefly luciferase reporter gene.
Briefly, AREc32 cells were grown in Opti-MEM (GIBCO, Carlsbad, Calif.) supplemented with 4% fetal bovine serum (FBS, GIBCO) and 1% Antibiotic-Antimycotic (GIBCO) at 37° C. and in a 10% CO 2-supplemented air atmosphere. The cells were seeded at 1% to 5% of confluent cell density in T75 tissue culture flasks and cultivated until they approached confluence. The medium was aspirated off and the adherent cells trypsinized with 1 ml of 1× Trypsin-EDTA solution (GIBCO) for 10 min. Ten milliliters of medium was added to the flask and the cells transferred to a 50 ml centrifuge tube and centrifuged at 1000 rpm for 5 min at room temperature. Cells were washed once with 10 ml of medium, then resuspended in 10 ml of medium. Cells were counted using a hemocytometer and diluted to a concentration of 50,000 cells/ml. Four hundred microliters of this cell suspension was seeded into each well of a 24-well plate (i.e. 20,000 cells/well). Seeded plates were then returned to the incubator for 24 h.
After 18-24 h the cells were reattached and growing, and ready for treatment with samples with putative Nrf2 activating activity. […] Vehicles used were aqueous or organic solvents such as ethanol or DMSO, and appropriate vehicle controls were included. The cells were then returned to the incubator for 18 h. All operations up to this point must be conducted under sterile conditions.
After 24 h the cells were checked under the microscope for any abnormalities or detachment. The medium was aspirated and the cells were washed with phosphate buffered saline, pH 7.4 (100 μl/well). Following aspiration of the wash solution, the cells were lysed by application of 0.1 M potassium phosphate buffer, pH 7.8, containing 1% Triton X-100, 2 mM dithiothreitol, 2 mM EDTA, 10% glycerol and 3.5 mM sodium pyrophosphate (100 μl/well). The plate was incubated at 4° C. for 20 min. Lysate (20 μl from each well in a new 12×75 mm glass test tube) was assayed for luciferase activity using a Monolight 3010 autoinject luminometer (Analytical Luminescence Laboratory, Ann Arbor, Mich.), automatically injecting 50 of Luciferase Assay Buffer after background measurement. Luciferase Assay Buffer was prepared by mixing 9 ml of Solution A (15 mM Tricine, pH 7.8, containing 1.5 mM ATP, 7.5 mM MgSO 4, and 5 mM dithiothreitol) with 1 ml of Solution B 10 mM D-luciferin). After a 4 delay following injection, luminescence was measured for 10 s. Relative Light Units (RLU) were recorded for the contents of each well. Fold Induction (FI) of luciferase activity was calculated by dividing the RLU obtained for the test well by the average RLU obtained for control wells (which received no putative Nrf2 activator). Each assay or control was performed in duplicate. Parameters noted were the concentration of test substance providing maximal fold induction of luciferase (Cmax), and the maximal fold induction observed (FImax).
The AREc32 cells were prepared as in Example 7. After 18-24 h the cells were reattached and growing, and ready for treatment with samples with putative Nrf2 activating activity. […]

[9] = SK-N-MC, 250 nM Akt inhibitor IV, 30 μM LY294002, 10 μM U0126, 20 μM SP600125, 30 min, then 20 μg/ml Protandim® 24 h
[10] = SK-N-MC, then 20 μg/ml Protandim® 24 h
[11] = AREc32 cells, biphasic induction

CC(C)NCC(O)COc1ccc(CC(N)=O)cc1 (stereo not shown) [ATENOLOL]
lowest diastolic measurement [1]: 91

CC[n+]1c(/C=C/N(C)c2ccccc2)n(-c2ccccc2)c2ccc(-c3nc4ccccc4s3)cc21 [Akt inhibitor IV, 5-(2-benzothiazolyl)-3-ethyl-2-[2-(methylphenylamino)ethenyl]-1-phenyl-1H-benzimidazolium iodide]
effect of inhibitor on Protandim®-induced increase in HO-1 protein levels [2, 9]: significant (p<0.001) decrease

COc1cc(/C=C/C(=O)CC(=O)/C=C/c2ccc(O)c(OC)c2)ccc1O [Curcumin]
HO-1 promoter induction by individual ingredient [3]: 36% | HO-1 promoter induction by individual ingredient [4]: 300% | increase of HO-1 protein level [5]: 6 fold | increase of HO-1 protein level [6]: 6 fold

N[C@@H](CCC(=O)N[C@@H](CS)C(=O)NCC(=O)O)C(=O)O [GSH, L-γ-glutamyl-L-cysteinyl-glycine]
rate constant K2 against the hydroxyl radical [7]: 8.8×10^9

CC(=O)N[C@@H](CS)C(=O)O [NAC, N-Acetyl Cysteine]
rate constant K2 against the hydroxyl radical [7]: 1.36e+10 M⁻¹ s⁻¹

C[S+]([O-])c1ccc(-c2nc(-c3ccncc3)c(-c3ccc(F)cc3)[nH]2)cc1 (stereo not shown) [SB203580]
decrease of Protandim®-mediated increase in HO-1 expression in presence of inhibitor [2, 10]: 50%

Oc1c2ccccc2c2c3c(cccc13)N=N2 [SP600125]
effect of inhibitor on Protandim®-induced increase in HO-1 protein levels [2, 9]: No significant effect

N#CC(=C(/N)Sc1ccccc1N)/C(C#N)=C(\N)Sc1ccccc1N [U0126]
effect of inhibitor on Protandim®-induced increase in HO-1 protein levels [2]: No significant effect

CC1=C(CO)C(=O)O[C@@H]([C@@H](C)[C@H]2CC[C@H]3[C@@H]4C[C@H]5O[C@]56[C@@H](O)C=CC(=O)[C@]6(C)[C@H]4CC[C@]23C)C1 [Withaferin A]
concentration providing maximal fold induction of luciferase (Cmax) ([8]; AREc32 cells, 18 h): 2.1 µM | concentration providing maximal fold induction of luciferase (Cmax) ([8]; AREc32 cells, 18 h, ethanolic extract): 1.0 µg/mL

COC(=O)[C@]12CCC(C)(C)C[C@H]1[C@H]1C(=O)C=C3[C@@]4(C)C=C(C#N)C(=O)C(C)(C)[C@@H]4CC[C@@]3(C)[C@]1(C)CC2 [bardoxolone methyl]
maximal fold induction observed (FImax) [8]: 67 fold | lower end of concentration range producing near maximal FI [8, 11]: less than 40 nM | upper end of concentration range producing near maximal FI [8, 11]: 0.4 µM

CC(=O)c1c(O)c(C)c(O)c(Cc2c(O)c3c(c(C(=O)/C=C/c4ccccc4)c2O)OC(C)(C)C=C3)c1O [rottlerin]
decrease of Protandim®-mediated increase in HO-1 expression in presence of inhibitor [2, 10]: 50%

C[S+]([O-])CCCCN=C=S (stereo not shown) [sulforaphane]
maximal fold induction observed (FImax) ([8]; human, 18 h): 21 fold

CC(C)(C)c1cc(O)ccc1O [tert-butyl-hydroquinone]
increase of luciferase activity ([8]; AREc32 cells, 50 μmol/L): up to 50 fold
